Measurements: patent publication US20050220726A1, “Use of sugar esters in cosmetic and/or pharmaceutical preparations” (priority 2003, published 2005)

Key:
Format in all cases: cell-based
[1] = test system: melanocytes (B16 cell line); assay: Inhibition of melanin synthesis in B16 melanocytes; settings: 3 days, blank value = 100
Experimental: Melanin is the pigment responsible for the color of the skin and hair. It is formed in special organelles, the melanosomes, which occur in the melanocytes of the basal layer of the human epidermis. The biosynthesis of melanin begins with the amino acid tyrosine which is oxidized to DOPA (dihydroxyphenylalanine) in the presence of tyrosinase. The DOPA then polymerizes to melanin. […] After incubation for 3 days at 37° C./5% CO2, the nutrient medium was replaced by a solution containing the test substances in various concentrations. After incubation for another 3 days, the cell protein content (Bradford's method) and the content of synthesized melanin were determined through the optical density of the homogenizate at 475 nm. The results are expressed in % against a blank value and are set out in Table 7.

Staphylococcus aureus = assay: Agar dilution method (MIC determination); settings: 18 to 24 h at 37° C.
Experimental: (§1) The antibacterial activity of the test substances was tested by the diffusion method on agar plates or the agar dilution method. In this method, a round filter paper of defined diameter is first impregnated with the test solution and then applied to the surface of an agar plate inoculated beforehand with the test microorganisms. The size of the inhibition zones is then determined after defined times. In particular, it is possible by this method to determine the MIC (Minimum Inhibitory Concentration) as the lowest concentration of test substance with which complete inhibition of the microorganisms can be obtained. Agar dilution method (MIC determination). Various agars were prepared as described above, test substances were added in various concentrations, homogenized and dried. The Petri dishes were then inoculated with quantities of 2 μl of the bacterial suspension. After each drying step the Petri dishes were incubated for 18 to 24 h at 37° C. […] The results represent the averages of double determinations.

[2] = test system: Staphylococcus epidermidis; assay: Agar dilution method (MIC determination); settings: 18 to 24 h at 37° C.
Experimental: as §1

Propionibacterium acnes = assay: Agar dilution method (MIC determination); settings: 18 to 24 h at 37° C.
Experimental: as §1

Substance: Fructose caprate
- Cell melanin ([1]; conc. 0.003 % w/v): 54 %-rel.
- Cell proteins ([1]; conc. 0.003 % w/v): 108 %-rel.
- Cell melanin ([1]; conc. 0.006 % w/v): 30 %-rel.
- Cell proteins ([1]; conc. 0.006 % w/v): 80 %-rel.
- MIC, Staphylococcus aureus (Staphylococcus aureus): 1250 µg/mL
- MIC, Staphylococcus epidermidis [2]: 1250 µg/mL
- MIC, Propionibacterium acnes (Propionibacterium acnes): 625 µg/mL
